Calls of active or inactive are those of the source. The rule behind the calls is not given here.

Data set [1] can be described thus: Metabolic stability in mouse liver microsomes assessed as parent compound remaining at 1 uM measured after 30 mins by LC-MS/MS analysis. To be noted: read-out: Stability. The format is ADME, Microsome. (Liver microsomes are a subcellular fraction often used to study metabolism.)
A short description of data set [2]: Metabolic stability in mouse liver microsomes assessed as half-life at 1 uM incubated for 45 mins by LC-MS/MS analysis. Format: ADME, Microsome.
Data set [3] is described as follows: Metabolic stability in human liver microsomes assessed as parent compound remaining at 1 uM measured after 30 mins by LC-MS/MS analysis. The format is ADME, Microsome. The settings on record: read-out: Stability.
The nature of data set [4]: Metabolic stability in human liver microsomes assessed as parent compound remaining at 1 uM measured after 5 mins by LC-MS/MS analysis. The format is ADME, Microsome. The settings on record: read-out: Stability.
The nature of data set [5]: Metabolic stability in rat liver microsomes assessed as intrinsic clearance at 1 uM incubated for 45 mins by LC-MS/MS analysis. Format: ADME, Microsome. The settings on record: read-out: CLH.
A short description of data set [6]: Metabolic stability in human liver microsomes assessed as half-life at 1 uM incubated for 45 mins by LC-MS/MS analysis. The format is ADME, Microsome.
Data set [7] in a line: Metabolic stability in rat liver microsomes assessed as half-life at 1 uM incubated for 45 mins by LC-MS/MS analysis. Format: ADME, Microsome.
Data set [8] can be described thus: Metabolic stability in mouse liver microsomes assessed as parent compound remaining at 1 uM measured after 15 mins by LC-MS/MS analysis. The settings on record: read-out: Stability. Format: ADME, Microsome.
Data set [9] is described as follows: Metabolic stability in rat liver microsomes assessed as parent compound remaining at 1 uM measured after 15 mins by LC-MS/MS analysis. Format: ADME, Microsome. The settings on record: read-out: Stability.
Data set [10] is described as follows: Metabolic stability in rat liver microsomes assessed as parent compound remaining at 1 uM measured after 30 mins by LC-MS/MS analysis. The format is ADME, Microsome. The settings on record: read-out: Stability.
Data set [11] can be described thus: Metabolic stability in human liver microsomes assessed as parent compound remaining at 1 uM measured after 45 mins by LC-MS/MS analysis. The format is ADME, Microsome. The settings on record: read-out: Stability.
Data set [12] in a line: Metabolic stability in mouse liver microsomes assessed as parent compound remaining at 1 uM measured after 5 mins by LC-MS/MS analysis. Format: ADME, Microsome. To be noted: read-out: Stability.
Data set [13] in a line: Metabolic stability in human liver microsomes assessed as intrinsic clearance at 1 uM incubated for 45 mins by LC-MS/MS analysis. The format is ADME, Microsome. The settings on record: read-out: CLH.
The nature of data set [14]: Metabolic stability in human liver microsomes assessed as parent compound remaining at 1 uM measured after 15 mins by LC-MS/MS analysis. The format is ADME, Microsome. To be noted: read-out: Stability.
The nature of data set [15]: Metabolic stability in mouse liver microsomes assessed as parent compound remaining at 1 uM measured after 45 mins by LC-MS/MS analysis. The format is ADME, Microsome. To be noted: read-out: Stability.
Data set [16] in a line: Metabolic stability in mouse liver microsomes assessed as intrinsic clearance at 1 uM incubated for 45 mins by LC-MS/MS analysis. Format: ADME, Microsome. To be noted: read-out: CLH.
The nature of data set [17]: Metabolic stability in rat liver microsomes assessed as parent compound remaining at 1 uM measured after 5 mins by LC-MS/MS analysis. Format: ADME, Microsome. The settings on record: read-out: Stability.
A short description of data set [18]: Metabolic stability in rat liver microsomes assessed as parent compound remaining at 1 uM measured after 45 mins by LC-MS/MS analysis. The format is ADME, Microsome. The settings on record: read-out: Stability.
Another data set can be described thus: in vitro. The settings on record: human, HUVEC cells.
Data set [19] concerns MDA-MB-231. The data set is described as follows: Induction of apoptosis in human MDA-MB-231 cells assessed as viable cells at 5 uM incubated for 24 hrs by Annexin V-FITC/PI staining based flow cytometric analysis (reference value: 99.645%). The format is functional. To be noted: read-out: Activity. (A flow cytometer gives signals particle by particle.)
The subject of data set [20] is MDA-MB-231. The data set is described as follows: Induction of ROS production in human MDA-MB-231 cells at 5 uM incubated for 12 hrs by flow cytometry based confocal microscopic analysis. Format: functional, cell-based.
For data set [21], the system named is MDA-MB-231. The experiment in a line: Inhibition of cell migration in human MDA-MB-231 cells at 2.5 uM incubated for 12 hrs by cell scratch assay. The format is functional, cell-based.
Data set [22] concerns MDA-MB-231. The experiment in a line: Induction of apoptosis in human MDA-MB-231 cells assessed as apoptotic cells at 5 uM incubated for 24 hrs by Annexin V-FITC/PI staining based flow cytometric analysis relative to control. Format: functional.
The test system of the next data set is HepG2. The data set is described as follows: cells. The settings on record: Homo sapiens, HepG2, 72 h.
Data set [23] relates to MDA-MB-231. The experiment in a line: Induction of apoptosis in human MDA-MB-231 cells assessed as necrotic cells at 5 uM incubated for 24 hrs by Annexin V-FITC/PI staining based flow cytometric analysis (reference value: 0.063 %). The format is functional.
The subject of data set [24] is MDA-MB-231. The experiment in a line: Cell cycle arrest in human MDA-MB-231 cells assessed as accumulation of S phase cells at 5 uM incubated for 24 hrs by […]PI staining based flow cytometric analysis (reference value: 41.29%). Format: functional.
In data set [25] the test system is MDA-MB-231. The data set is described as follows: Antitumor activity against human MDA-MB-231 cells xenografted in female BALB/c athymic nude mouse assessed as tumor growth inhibition at 10 mg/kg, po administered once a day via gavage for 21 days relative to control. The format is functional. To be noted: MDA-MB-231, 504 h, time 21 day, read-out: TGI. For orientation: Xenograft models place foreign cells or tissue in a host animal.

Data set [26] relates to MDA-MB-231. The experiment in a line: Cell cycle arrest in human MDA-MB-231 cells assessed as accumulation of G2-M phase cells at 5 uM incubated for 24 hrs by […]PI staining based flow cytometric analysis (reference value: 16.88%). The format is functional.
The subject of data set [27] is MDA-MB-231. The experiment in a line: Induction of apoptosis in human MDA-MB-231 cells assessed as early apoptotic cells at 5 uM incubated for 24 hrs by Annexin V-FITC/PI staining based flow cytometric analysis (reference value: 0.131 %). Format: functional.
The test system of another data set is KYSE-150 cell line. The data set is described as follows: cells. The settings on record: Homo sapiens, KYSE-150, 72 h.
A further data set has as its system MDA-MB-435. The data set is described as follows: cells. The settings on record: Homo sapiens, MDA-MB-435, 72 h.
Data set [28] has as its system MDA-MB-231. The experiment in a line: Cell cycle arrest in human MDA-MB-231 cells assessed as accumulation of G0-G1 phase cells at 5 uM incubated for 24 hrs by […]PI staining based flow cytometric analysis (reference value: 41.83%). The format is functional.
Data set [29] deals with MDA-MB-231. The data set is described as follows: cells. To be noted: Homo sapiens, MDA-MB-231, 72 h.
Data set [30] deals with MDA-MB-231. The data set is described as follows: Induction of apoptosis in human MDA-MB-231 cells assessed as late apoptotic cells at 5 uM incubated for 24 hrs by Annexin V-FITC/PI staining based flow cytometric analysis (reference value: 0.161 %). Format: functional.

Description for KYSE-150 cell line: Antiproliferative activity against human KYSE-150 cells assessed as inhibition of cell growth incubated for 72 hrs by MTT assay
Description for MDA-MB-435: Antiproliferative activity against human MDA-MB-435 cells assessed as inhibition of cell growth incubated for 72 hrs by MTT assay
Description for in vitro: Cytotoxicity against HUVEC cells assessed as inhibition of cell growth incubated for 72 hrs by MTT assay

Take `O=C(c1ccc(F)cc1)C1CCN(CCn2c(=O)[nH]c3ccccc3c2=O)CC1` [KETANSERIN]: the remaining at 0.5 h, 1 µM in [1] was found to be 18.3%; in data set [3] it was 55.1%; in [10], 24.5%. The half-life at 1 µM is 9.35 min in [2], 28.6 min in [6] and 13.2 min in data set [7]. In addition, the remaining at 5 min, 1 µM in data set [4] amounted to 84.7%; in data set [12], 70.3%; in [17], 76.3%. Also, the figures for the CLint scaled at 1 µM in data set [5], in data set [13] and in data set [16] were 188 mL/min/kg, 60.8 mL/min/kg and 584 mL/min/kg, respectively. In addition, the values for the remaining at 0.25 h, 1 µM in [8], in [9] and in [14] were 38.3%, 48.5% and 68.5%, respectively. Also, the remaining at 0.75 h, 1 µM in [11] turned out to be 45.9%; in [15] it was 8.57%; in data set [18], 14.1%.
`COc1cc(CCc2cc(NC(=O)c3ccc(N4C[C@@H](C)N[C@@H](C)C4)cc3)n[nH]2)cc(OC)c1` [FEXAGRATINIB]: in the data set “in vitro”, the 50% inhibitory concentration (IC50) at 72 h was determined as 38 µM. Moreover, the viability at 5 µM with MDA-MB-231 [19] worked out at 58%. Also, in the data set with MDA-MB-231 [20], the result was Active. In the data set with MDA-MB-231 [21], the inhibition result was “Active”. Moreover, the Activity in the data set with MDA-MB-231 [22] is on record as 37.3%; with MDA-MB-231 [23] it was 2.72%; in the data set with MDA-MB-231 [24], 26.31%; in the data set on MDA-MB-231 [26], 14.77%; in the data set with MDA-MB-231 [27], 29%; in the data set on MDA-MB-231 [28], 58.92%. In addition, the Activity in the data set with MDA-MB-231 [30] came to 10.3%. The IC50 came out at 3.13 µM with HepG2, 8.92 µM in the data set on KYSE-150 cell line, 21.6 µM in the data set on MDA-MB-435 and 7.19 µM in the data set on MDA-MB-231 [29]. The inhibition in vivo at 10 mg/kg in the data set with MDA-MB-231 [25] was determined as 52.6%.

As a reminder, the half-life is how long it takes for the measured level to halve. The term IC50 denotes the point on the concentration scale where inhibition reaches its midpoint.
